According to patent publication US20100016547A1, “Glycosilated Peptide and Medicine Comprising It as an Effective Ingredient” (priority 2005, published 2010):
Peptide text beside a SMILES is read from it. * marks the point of attachment. NH(β-GlcNAc) = CC(=O)N[C@@H]1[C@@H](O)[C@H](O)[C@@H](CO)O[C@H]1N*

Tests used:
GLP-1 receptor [1] = biological target: T1, GLP-1 receptor (Homo sapiens, UniProt P43220); assay: Assay for production of cAMP
Protocol: Assay for Production of cAMP
After stirring at room temperature for an hour, the cells were lysed with Triton X-100 (final concentration: 1%).
Quantity of cAMP was determined using cAMP Femtomolar Kit (CIS Bio International). The reaction solution (1 μL) was moved to a new 384-well plate and diluted by adding 9 μL of dilution buffer. Next, each 5 μL of cAMP-XL665 solution and anti-cAMP cryptate solution of the Kit was added, the mixture was incubated at room temperature for an hour, and time-resolved fluorescence was measured using RUBYstar (BMG LABTECH).

GLP-1 receptor [2] = biological target: T1, GLP-1 receptor
Protocol: After being incubated at room temperature for 2 hours, the solution was filtered through a unifilter 96GF/C plate (Perkin-Elmer) pretreated with 1% polyethylenimine containing 0.5% BSA, washed with 25 mM HEPES buffer solution (pH 7.4) containing 0.5% BSA, and radioactivity remained on the filter was measured by a gamma counter (Top Counter; Perkin-Elmer).

T1 sequence (P43220 24-463, species assumed): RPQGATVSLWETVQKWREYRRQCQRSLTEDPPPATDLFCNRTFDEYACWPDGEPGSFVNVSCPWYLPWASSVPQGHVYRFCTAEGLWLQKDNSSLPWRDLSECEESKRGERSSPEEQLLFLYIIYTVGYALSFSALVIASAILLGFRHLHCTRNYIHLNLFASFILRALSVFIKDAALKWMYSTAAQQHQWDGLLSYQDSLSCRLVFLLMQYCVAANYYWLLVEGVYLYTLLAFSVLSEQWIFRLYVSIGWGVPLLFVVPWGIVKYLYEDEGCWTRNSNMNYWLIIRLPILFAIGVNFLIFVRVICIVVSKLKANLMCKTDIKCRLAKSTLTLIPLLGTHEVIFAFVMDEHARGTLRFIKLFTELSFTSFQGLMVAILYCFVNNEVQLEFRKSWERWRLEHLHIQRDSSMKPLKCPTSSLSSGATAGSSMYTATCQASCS

Row | EC50 (GLP-1 receptor [1]) [nM] | IC50 (GLP-1 receptor [2]) [nM] | Compound
1 | 0.33 | 2 | CC[C@H](C)[C@H](NC(=O)[C@H](Cc1ccccc1)NC(=O)[C@H](CCC(=O)O)NC(=O)[C@H](CC(=O)N[C@@H]1O[C@H](CO)[C@@H](O[C@@H]2O[C@H](CO)[C@H](O)[C@H](O)[C@H]2O)[C@H](O)[C@H]1NC(C)=O)NC(=O)[C@H](C)NC(=O)[C@H](C)NC(=O)[C@H](CCC(N)=O)NC(=O)CNC(=O)[C@H](CCC(=O)O)NC(=O)[C@H](CC(C)C)NC(=O)[C@H](Cc1ccc(O)cc1)NC(=O)[C@H](CO)NC(=O)[C@H](CO)NC(=O)[C@@H](NC(=O)[C@H](CC(=O)O)NC(=O)[C@H](CO)NC(=O)[C@@H](NC(=O)[C@H](Cc1ccccc1)NC(=O)[C@@H](NC(=O)CNC(=O)[C@H](CCC(=O)O)NC(=O)[C@H](C)NC(=O)[C@@H](N)Cc1c[nH]cn1)[C@@H](C)O)[C@@H](C)O)C(C)C)C(=O)N[C@@H](C)C(=O)N[C@@H](Cc1c[nH]c2ccccc12)C(=O)N[C@@H](CC(C)C)C(=O)N[C@H](C(=O)N[C@@H](CCCCN)C(=O)NCC(=O)N[C@@H](CCCNC(=N)N)C(N)=O)C(C)C [GL26NL]
2 | 8.1 | 41 | CC[C@H](C)[C@H](NC(=O)[C@H](Cc1ccccc1)NC(=O)[C@H](CCC(=O)O)NC(=O)[C@H](CCCCN)NC(=O)[C@H](C)NC(=O)[C@H](C)NC(=O)[C@H](CCC(N)=O)NC(=O)CNC(=O)[C@H](CCC(=O)O)NC(=O)[C@H](CC(C)C)NC(=O)[C@H](CC(=O)N[C@@H]1O[C@H](CO)[C@@H](O)[C@H](O)[C@H]1NC(C)=O)NC(=O)[C@H](CO)NC(=O)[C@H](CO)NC(=O)[C@@H](NC(=O)[C@H](CC(=O)O)NC(=O)[C@H](CO)NC(=O)[C@@H](NC(=O)[C@H](Cc1ccccc1)NC(=O)[C@@H](NC(=O)CNC(=O)[C@H](CCC(=O)O)NC(=O)[C@H](C)NC(=O)[C@@H](N)Cc1c[nH]cn1)[C@@H](C)O)[C@@H](C)O)C(C)C)C(=O)N[C@@H](C)C(=O)N[C@@H](Cc1c[nH]c2ccccc12)C(=O)N[C@@H](CC(C)C)C(=O)N[C@H](C(=O)N[C@@H](CCCCN)C(=O)NCC(=O)N[C@@H](CCCNC(=N)N)C(N)=O)C(C)C [GL19NG] (H-HAEGTFTSDVSSD(NH(β-GlcNAc))LEGQAAKEFIAWLVKGR-NH2)
3 | 0.2 | 3 | CC[C@H](C)[C@H](NC(=O)[C@H](Cc1ccccc1)NC(=O)[C@H](CCC(=O)O)NC(=O)[C@H](CCCCN)NC(=O)[C@H](C)NC(=O)[C@H](C)NC(=O)[C@H](CCC(N)=O)NC(=O)CNC(=O)[C@H](CCC(=O)O)NC(=O)[C@H](CC(C)C)NC(=O)[C@H](Cc1ccc(O)cc1)NC(=O)[C@H](CO)NC(=O)[C@H](CO)NC(=O)[C@@H](NC(=O)[C@H](CC(=O)O)NC(=O)[C@H](CO)NC(=O)[C@@H](NC(=O)[C@H](Cc1ccccc1)NC(=O)[C@@H](NC(=O)CNC(=O)[C@H](CCC(=O)O)NC(=O)[C@H](C)NC(=O)[C@@H](N)Cc1c[nH]cn1)[C@@H](C)O)[C@@H](C)O)C(C)C)C(=O)N[C@@H](C)C(=O)N[C@@H](Cc1c[nH]c2ccccc12)C(=O)N[C@@H](CC(C)C)C(=O)N[C@H](C(=O)N[C@@H](CC(=O)N[C@@H]1O[C@H](CO)[C@@H](O[C@@H]2O[C@H](CO[C@]3(C(=O)O)C[C@H](O)[C@@H](NC(C)=O)[C@H]([C@H](O)[C@H](O)CO)O3)[C@H](O)[C@H](O)[C@H]2O)[C@H](O)[C@H]1NC(C)=O)C(=O)NCC(=O)N[C@@H](CCCNC(=N)N)C(=O)N[C@@H](CC(=O)N[C@@H]1O[C@H](CO)[C@@H](O[C@@H]2O[C@H](CO[C@]3(C(=O)O)C[C@H](O)[C@@H](NC(C)=O)[C@H]([C@H](O)[C@H](O)CO)O3)[C@H](O)[C@H](O)[C@H]2O)[C@H](O)[C@H]1NC(C)=O)C(N)=O)C(C)C [GL3437NS6]
4 | 0.09 |  | CC[C@H](C)[C@H](NC(=O)[C@H](Cc1ccccc1)NC(=O)[C@H](CCC(=O)O)NC(=O)[C@H](CC(N)=O)NC(=O)[C@H](C)NC(=O)[C@H](C)NC(=O)[C@H](CCC(N)=O)NC(=O)CNC(=O)[C@H](CCC(=O)O)NC(=O)[C@H](CC(C)C)NC(=O)[C@H](Cc1ccc(O)cc1)NC(=O)[C@H](CO)NC(=O)[C@H](CO)NC(=O)[C@@H](NC(=O)[C@H](CC(=O)O)NC(=O)[C@H](CO)NC(=O)[C@@H](NC(=O)[C@H](Cc1ccccc1)NC(=O)[C@@H](NC(=O)CNC(=O)[C@H](CCC(=O)O)NC(=O)[C@H](C)NC(=O)[C@@H](N)Cc1c[nH]cn1)[C@@H](C)O)[C@@H](C)O)C(C)C)C(=O)N[C@@H](C)C(=O)N[C@@H](Cc1c[nH]c2ccccc12)C(=O)N[C@@H](CC(C)C)C(=O)N[C@H](C(=O)N[C@@H](CCCCN)C(=O)NCC(=O)N[C@@H](CCCNC(=N)N)C(N)=O)C(C)C [GL26N]
5 |  | 0.7 | CC[C@H](C)[C@H](NC(=O)[C@H](Cc1ccccc1)NC(=O)[C@H](CCC(=O)O)NC(=O)[C@H](CCCCN)NC(=O)[C@H](C)NC(=O)[C@H](C)NC(=O)[C@H](CCC(N)=O)NC(=O)CNC(=O)[C@H](CCC(=O)O)NC(=O)[C@H](CC(C)C)NC(=O)[C@H](Cc1ccc(O)cc1)NC(=O)[C@H](CO)NC(=O)[C@H](CO)NC(=O)[C@@H](NC(=O)[C@H](CC(=O)O)NC(=O)[C@H](CO)NC(=O)[C@@H](NC(=O)[C@H](Cc1ccccc1)NC(=O)[C@@H](NC(=O)CNC(=O)[C@H](CCC(=O)O)NC(=O)[C@H](C)NC(=O)[C@@H](N)Cc1c[nH]cn1)[C@@H](C)O)[C@@H](C)O)C(C)C)C(=O)N[C@@H](C)C(=O)N[C@@H](Cc1c[nH]c2ccccc12)C(=O)N[C@@H](CC(C)C)C(=O)N[C@H](C(=O)N[C@@H](CC(=O)N[C@@H]1O[C@H](CO)[C@@H](O[C@@H]2O[C@H](CO[C@]3(C(=O)O)C[C@H](O)[C@@H](NC(C)=O)[C@H]([C@H](O)[C@H](O)CO)O3)[C@H](O)[C@H](O)[C@H]2O)[C@H](O)[C@H]1NC(C)=O)C(=O)NCC(=O)N[C@@H](CCCNC(=N)N)C(N)=O)C(C)C [GL34NS6]

Row | Compound | EC50 (GLP-1 receptor [1]) [nM] | IC50 (GLP-1 receptor [2]) [nM]
6 | CC[C@H](C)[C@H](NC(=O)[C@H](Cc1ccccc1)NC(=O)[C@H](CCC(=O)O)NC(=O)[C@H](CCCCN)NC(=O)[C@H](C)NC(=O)[C@H](C)NC(=O)[C@H](CCC(N)=O)NC(=O)CNC(=O)[C@H](CCC(=O)O)NC(=O)[C@H](CC(C)C)NC(=O)[C@H](Cc1ccc(O)cc1)NC(=O)[C@H](CO)NC(=O)[C@H](CO)NC(=O)[C@@H](NC(=O)[C@H](CC(=O)O)NC(=O)[C@H](CO)NC(=O)[C@@H](NC(=O)[C@H](Cc1ccccc1)NC(=O)[C@@H](NC(=O)CNC(=O)[C@H](CCC(=O)O)NC(=O)[C@H](C)NC(=O)[C@@H](N)Cc1c[nH]cn1)[C@@H](C)O)[C@@H](C)O)C(C)C)C(=O)N[C@@H](C)C(=O)N[C@@H](Cc1c[nH]c2ccccc12)C(=O)N[C@@H](CC(C)C)C(=O)N[C@H](C(=O)N[C@@H](CC(=O)N[C@@H]1O[C@H](CO)[C@@H](O[C@@H]2O[C@H](CO)[C@@H](O[C@@H]3O[C@H](CO[C@H]4O[C@H](CO)[C@@H](O)[C@H](O)[C@@H]4O[C@@H]4O[C@H](CO)[C@@H](O[C@@H]5O[C@H](CO[C@]6(C(=O)O)C[C@H](O)[C@@H](NC(C)=O)[C@H]([C@H](O)[C@H](O)CO)O6)[C@H](O)[C@H](O)[C@H]5O)[C@H](O)[C@H]4NC(C)=O)[C@@H](O)[C@H](O[C@H]4O[C@H](CO)[C@@H](O)[C@H](O)[C@@H]4O[C@@H]4O[C@H](CO)[C@@H](O[C@@H]5O[C@H](CO[C@]6(C(=O)O)C[C@H](O)[C@@H](NC(C)=O)[C@H]([C@H](O)[C@H](O)CO)O6)[C@H](O)[C@H](O)[C@H]5O)[C@H](O)[C@H]4NC(C)=O)[C@@H]3O)[C@H](O)[C@H]2NC(C)=O)[C@H](O)[C@H]1NC(C)=O)C(=O)NCC(=O)N[C@@H](CCCNC(=N)N)C(N)=O)C(C)C [GL34NE1] |  | 2.7
7 | CC[C@H](C)[C@H](NC(=O)[C@H](Cc1ccccc1)NC(=O)[C@H](CS)NC(=O)[C@H](CCCNC(=N)N)NC(=O)[C@@H](NC(=O)[C@H](C)NC(=O)[C@H](CCC(=O)O)NC(=O)[C@H](CCC(=O)O)NC(=O)[C@H](CCC(=O)O)NC(=O)[C@H](CCSC)NC(=O)[C@H](CCC(N)=O)NC(=O)[C@H](CCCCN)NC(=O)[C@H](CO)NC(=O)[C@H](CC(C)C)NC(=O)[C@H](CC(=O)O)NC(=O)[C@H](CO)NC(=O)[C@@H](NC(=O)[C@H](Cc1ccccc1)NC(=O)[C@@H](NC(=O)CNC(=O)[C@H](CCC(=O)O)NC(=O)CNC(=O)[C@@H](N)Cc1c[nH]cn1)[C@@H](C)O)[C@@H](C)O)C(C)C)C(=O)N[C@@H](CCC(=O)O)C(=O)N[C@@H](Cc1c[nH]c2ccccc12)C(=O)N[C@@H](CC(C)C)C(=O)N[C@@H](CCCCN)C(=O)N[C@@H](CS)C(=O)NCC(=O)NCC(=O)N1CCC[C@H]1C(=O)N[C@@H](CO)C(=O)N[C@@H](CO)C(=O)NCC(=O)N[C@@H](CS)C(=O)N1CCC[C@H]1C(=O)N1CCC[C@H]1C(=O)N1CCC[C@H]1C(=O)N[C@@H](CO)C(=O)N[C@@H](CS)C(N)=O [EX21283540C] | 0.055 | 
